The values that follow come from PubChem BioAssay (NCI).

Several values for one entry are separate records, joined by “and”; a condition that tells them apart may be missing. Equal values may be shown once.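 Where inhibition never reached the appropriate level, the endpoint shown equals the highest concentration tested. Otherwise, values were interpolated linearly from a five-concentration, 48-hour dose response in 96-well plates. Abbreviation: GI50, concentration required for 50% inhibition of growth. TGI: total growth inhibition.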 Some results are limits rather than exact numbers.

Test systems include SNB-78 CNS; LXFL 529 NSCLC; M19-MEL melanoma; DMS 273 small cell lung; RXF-631 renal; XF 498 CNS; PC-3 prostate; MDA-MB-231 breast; BT-549 breast; MCF7 breast.
What all share (assay): NCI anticancer screen, dose series, 48 h

Turning to `O=S1CSCS1` (configuration not stated), the TGI in the test on SNB-78 CNS, in the test with LXFL 529 NSCLC, with M19-MEL melanoma, with DMS 273 small cell lung, in the test on RXF-631 renal and in the test with XF 498 CNS was more than 100 µM throughout.
For the compound `CC(C)(C)N/N=C(\Cc1occc(=O)c1O)C(=O)Nc1ccc([N+](=O)[O-])cc1[N+](=O)[O-]`, the TGI with SNB-78 CNS, in the test on LXFL 529 NSCLC, in the test with M19-MEL melanoma, in the test on DMS 273 small cell lung, in the test with RXF-631 renal and in the test on XF 498 CNS was more than 100 µM each time.
Consider `Cc1cc(=O)n(-c2ccccc2)c(=O)o1`, for which the TGI with SNB-78 CNS, with LXFL 529 NSCLC, in the test with M19-MEL melanoma and with DMS 273 small cell lung was more than 100 µM in each case.
On to `CC(=O)[CH-]C(=O)c1ccccc1.CC(=O)[CH-]C(=O)c1ccccc1.COc1cccc([O-])c1[O-].[Ti+4]`, for which the GI50 is 34.3 µM with LXFL 529 NSCLC and 32.4 µM with M19-MEL melanoma. In addition, the results for the TGI in the test on LXFL 529 NSCLC and in the test with M19-MEL melanoma were more than 100 µM and 89.7 µM, respectively.
In the case of `CC(C)N(C(=O)C12C3C4C5C3C1(C(=O)N(C(C)C)C(C)C)C5(C#N)C42)C(C)C` (configuration not stated), the TGI in the test with SNB-78 CNS, in the test with LXFL 529 NSCLC, in the test with M19-MEL melanoma, in the test on DMS 273 small cell lung, in the test with RXF-631 renal and in the test with XF 498 CNS was more than 100 µM each time.
Take `N#CNC(N)=NCCO`: the TGI in the test with SNB-78 CNS, with LXFL 529 NSCLC, with M19-MEL melanoma, in the test on DMS 273 small cell lung, in the test with RXF-631 renal and with XF 498 CNS was more than 100 µM each time.
`CC(=O)OCCOCNC(=S)N/N=C/c1ccc2ccccc2n1`: the TGI with SNB-78 CNS, in the test on LXFL 529 NSCLC, in the test on M19-MEL melanoma, in the test with DMS 273 small cell lung, in the test with RXF-631 renal and with XF 498 CNS was more than 100 µM throughout.
As for `CNC(=S)N/N=C1\CC(c2ccccc2)Oc2ccccc21` (configuration not stated), the TGI with SNB-78 CNS, with LXFL 529 NSCLC, in the test with M19-MEL melanoma and with DMS 273 small cell lung was more than 100 µM throughout.
Consider `Clc1ccccc1C(n1ncc2ccccc21)n1ncc2ccccc21`, for which the TGI in the test on SNB-78 CNS, in the test on LXFL 529 NSCLC, in the test on M19-MEL melanoma, in the test with DMS 273 small cell lung and with XF 498 CNS was more than 100 µM each time.
Regarding `[C-]#[O+].[Cl][Sn]([Cl])[Cl].[Cl][Sn]([Cl])[Cl].[Pt].c1ccc([PH+](c2ccccc2)c2ccccc2)cc1.c1ccc([PH+](c2ccccc2)c2ccccc2)cc1`, the GI50 in the test on SNB-78 CNS was more than 100 µM; in the test on LXFL 529 NSCLC it was 23.2 µM; with M19-MEL melanoma, 41 µM; in the test with DMS 273 small cell lung, 46.1 µM. Moreover, the TGI in the test on SNB-78 CNS was more than 100 µM; in the test on LXFL 529 NSCLC, 82.1 µM; in the test on M19-MEL melanoma it was more than 100 µM; in the test on DMS 273 small cell lung, more than 100 µM.
For the compound `C/C=C(\C)c1cc(=O)c2c(C)cc3c(c2o1)C(=O)c1c(O)c(C2CC(C)(N(C)C)C(O)C(C)O2)cc(C2CC(N(C)C)C(O)C(C)O2)c1C3=O` (configuration not stated), the TGI was 1.42 µM in the test with PC-3 prostate; 0.764 µM in the test with MDA-MB-231 breast; 50.6 µM with SNB-78 CNS; 16.1 µM in the test with M19-MEL melanoma; 0.735 µM in the test with BT-549 breast; 14.5 µM and 8.8 µM with MCF7 breast. The compound also returned a TGI in the test on DMS 273 small cell lung of 11.4 µM.
For `NC(C/[N+]([O-])=N/O)C(=O)O` (configuration not stated), the GI50 in the test with PC-3 prostate is 6.71 µM and 3.64 µM and 4.92 µM; in the test on BT-549 breast, 4.46 µM and 9.57 µM and 9.78 µM; with MCF7 breast it was 1.2 µM and 4.17 µM and 1.15 µM. For the same compound, the TGI in the test with PC-3 prostate was more than 500 µM; in the test on MDA-MB-231 breast, more than 500 µM; in the test on SNB-78 CNS it was more than 500 µM; in the test on M19-MEL melanoma it was more than 373 µM; in the test on BT-549 breast it was more than 500 µM; with MCF7 breast, > 100 µM and 295 µM. The TGI in the test on DMS 273 small cell lung is 50.4 µM; with XF 498 CNS, 40.1 µM.
As to `CC1(C)CCC[C@@]2(C)C1C[C@H](O)[C@@]1(C)O[C@@](C)([C@H](O)CO)CCC21` (some centres not stated), the TGI with SNB-78 CNS, in the test with LXFL 529 NSCLC, with M19-MEL melanoma, in the test with DMS 273 small cell lung, with RXF-631 renal and in the test with XF 498 CNS was more than 100 µM each time.
Take `Cc1ccc(C2CC(c3ccc([N+](=O)[O-])cc3)=Nc3ccccc3S2)cc1` (configuration not stated): the TGI with LXFL 529 NSCLC is 37.5 µM; with M19-MEL melanoma it was 45 µM; in the test on RXF-631 renal it was more than 100 µM; with XF 498 CNS it was 55.7 µM.
Take `O=C(c1ccccc1)C(c1ccccc1)C1(O)C(=O)Nc2ccccc21` (configuration not stated): the TGI in the test on SNB-78 CNS, in the test with LXFL 529 NSCLC, in the test with M19-MEL melanoma, in the test on DMS 273 small cell lung, in the test with RXF-631 renal and in the test with XF 498 CNS was more than 100 µM in each case.
As for `O=C(O)C1CCc2nnc(-c3ccccc3)n21` (configuration not stated), the TGI in the test with SNB-78 CNS, in the test with LXFL 529 NSCLC, with M19-MEL melanoma, in the test on DMS 273 small cell lung and in the test on RXF-631 renal was more than 100 µM in each case.
`COc1c(C2=NC(C(C)C)CO2)ccc2ccccc12` (configuration not stated): the TGI in the test on SNB-78 CNS, in the test with LXFL 529 NSCLC, in the test with M19-MEL melanoma, with DMS 273 small cell lung, in the test on RXF-631 renal and with XF 498 CNS was more than 100 µM each time.
Take `COc1ccc(CN2C(=O)C(Cc3cc(OC)c(OC)c(C)c3OC)NC(=O)/C2=C/c2cc(OC)c(OC)c(C)c2OC)cc1` (configuration not stated): the TGI with LXFL 529 NSCLC is more than 100 µM; in the test on M19-MEL melanoma, 37.7 µM; in the test with RXF-631 renal, more than 100 µM.
For the compound `Cc1nc2ccccc2c(=O)n1/N=C(\N=Nc1cc(Cl)ccc1Cl)c1cccc(-c2ccco2)c1`, the TGI in the test with M19-MEL melanoma, with DMS 273 small cell lung and in the test on RXF-631 renal was more than 100 µM each time.
For the compound `Cc1c(C(=O)CC(=O)C(=O)Nc2c(C(C)C)cccc2C(C)C)[n+](=O)c2ccccc2n1[O-]`, the TGI was 41.3 µM in the test on SNB-78 CNS; 23.4 µM in the test with LXFL 529 NSCLC; 4.87 µM in the test on M19-MEL melanoma; 12.1 µM with DMS 273 small cell lung; 14.4 µM in the test with RXF-631 renal; 15 µM with XF 498 CNS.
